According to patent publication US9932309B2, “2-oxo-3,4-dihydropyridine-5-carboxylates and their use” (UNIVERSITE DE LILLE 2 DROIT ET SANTE, priority 2014, dated 2018):

Key:
mTGR5 = biological target: T1, mTGR5 (Mus musculus, UniProt Q80SS6); test: TGR5/CRE Luciferase Assay (mTGR5); assay type: cell-based; details: for EC50: HEK 293 cells co-transfected with pCMV AC6-TGR5m and pCRE TA-Luciferase, overnight incubation; for mTGR5 % trans: percentage of the 10 μM LCA value, HEK 293 cells transfected with mTGR5
T1 construct: expressed in transfected cells; host or cells: HEK293 cells, transiently co-transfected with the pCRE TA-Luciferase reporter
T1 sequence (Q80SS6 1-329): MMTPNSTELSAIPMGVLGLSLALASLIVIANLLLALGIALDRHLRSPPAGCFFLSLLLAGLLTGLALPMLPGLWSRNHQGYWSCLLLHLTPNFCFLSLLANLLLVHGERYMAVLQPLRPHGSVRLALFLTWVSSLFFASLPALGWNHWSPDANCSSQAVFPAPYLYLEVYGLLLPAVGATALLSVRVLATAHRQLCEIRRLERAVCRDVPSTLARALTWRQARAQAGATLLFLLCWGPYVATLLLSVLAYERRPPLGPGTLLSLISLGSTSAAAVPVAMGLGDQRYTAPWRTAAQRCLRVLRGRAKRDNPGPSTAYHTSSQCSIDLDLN
Outline: (§1)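 cAMP-dependent luciferase luminescence was measured after overnight compound exposure (duplicate concentration series) and fitted to a four-parameter logistic equation. Cells: HEK293 transiently co-expressing hTGR5 or mTGR5 with a CRE reporter; lithocholic acid at 10 μM was the reference agonist.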

hTGR5 = biological target: T2, hTGR5 (Homo sapiens, UniProt Q8TDU6); test: TGR5/CRE Luciferase Assay (hTGR5); assay type: cell-based; details: for EC50: HEK 293 cells co-transfected with pCMV tag4b-TGR5h and pCRE TA-Luciferase, overnight incubation; for hTGR5 % trans: percentage of the 10 μM LCA value, HEK 293 cells transfected with hTGR5
T2 construct: expressed in transfected cells; host or cells: HEK293 cells, transiently co-transfected with the pCRE TA-Luciferase reporter
T2 sequence (Q8TDU6 1-330): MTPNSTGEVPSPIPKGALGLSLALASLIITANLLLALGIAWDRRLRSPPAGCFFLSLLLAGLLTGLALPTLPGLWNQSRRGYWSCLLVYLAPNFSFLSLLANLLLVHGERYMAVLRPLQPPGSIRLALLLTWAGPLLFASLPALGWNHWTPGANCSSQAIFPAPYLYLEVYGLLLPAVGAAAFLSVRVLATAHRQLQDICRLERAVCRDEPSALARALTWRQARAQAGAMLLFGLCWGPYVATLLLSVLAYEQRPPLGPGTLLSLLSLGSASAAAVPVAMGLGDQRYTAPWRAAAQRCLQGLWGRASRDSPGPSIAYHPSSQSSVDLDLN
Outline: as §1

Row | Compound | EC50 (mTGR5) [nM] | mTGR5 % trans (mTGR5) [%] | EC50 (hTGR5) [nM] | hTGR5 % trans (hTGR5) [%]
1 | CC1=C(C(=O)OCc2ccc(C)cc2)C(c2ccc(Cl)cc2)CC(=O)N1C (centres unmarked) [Example 79, p-tolylmethyl 4-(4-chlorophenyl)-1,6-dimethyl-2-oxo-3,4-dihydropyridine-5-carboxylate] | 700 | 73 | 700 | 80
2 | CC1=C(C(=O)OCc2ccc(C(F)(F)F)cc2)C(c2ccc(Cl)cc2)CC(=O)N1C (centres unmarked) [Example 80, [4-(trifluoromethyl)phenyl]methyl 4-(4-chlorophenyl)-1,6-dimethyl-2-oxo-3,4-dihydropyridine-5-carboxylate] | 1400 | 67 | 1500 | 60
3 | CC1=C(C(=O)OCc2ccc(F)cc2Cl)C(c2ccc(Cl)cc2)CC(=O)N1C (centres unmarked) [Example 81, (2-chloro-4-fluoro-phenyl)methyl 4-(4-chlorophenyl)-1,6-dimethyl-2-oxo-3,4-dihydropyridine-5-carboxylate] | 1300 | 62 | 500 | 86
4 | CC1=C(C(=O)OCc2c(F)cccc2F)C(c2ccc(Cl)cc2)CC(=O)N1C (centres unmarked) [Example 82, (2,6-difluorophenyl)methyl 4-(4-chlorophenyl)-1,6-dimethyl-2-oxo-3,4-dihydropyridine-5-carboxylate] | 1500 | 59 | 700 | 74
5 | COCCN1C(=O)CC(c2ccc(Cl)cc2)C(C(=O)OCc2ccccc2F)=C1C (centres unmarked) [Example 84, (2-fluorophenyl)methyl 4-(4-chlorophenyl)-1-(2-methoxyethyl)-6-methyl-2-oxo-3,4-dihydropyridine-5-carboxylate] | 500 | 71 | 400 | 71
6 | COCCN1C(=O)CC(c2ccc(Cl)cc2)C(C(=O)OCc2ccccc2C(F)(F)F)=C1C (centres unmarked) [Example 90, [2-(trifluoromethyl)phenyl]methyl 4-(4-chlorophenyl)-1-(2-methoxyethyl)-6-methyl-2-oxo-3,4-dihydropyridine-5-carboxylate] | 1300 | 34 | 1100 | 57
7 | COCCN1C(=O)CC(c2ccc(Cl)cc2)C(C(=O)OCc2cccc(C(F)(F)F)c2)=C1C (centres unmarked) [Example 91, [3-(trifluoromethyl)phenyl]methyl 4-(4-chlorophenyl)-1-(2-methoxyethyl)-6-methyl-2-oxo-3,4-dihydropyridine-5-carboxylate] | 700 | – | 500 | –
8 | COCCN1C(=O)CC(c2ccc(Cl)cc2)C(C(=O)OCc2ccccc2C#N)=C1C (centres unmarked) [Example 93, (2-cyanophenyl)methyl 4-(4-chlorophenyl)-1-(2-methoxyethyl)-6-methyl-2-oxo-3,4-dihydropyridine-5-carboxylate] | 800 | 53 | 600 | 58
9 | COCCN1C(=O)CC(c2ccc(Cl)cc2)C(C(=O)OCc2cccc(C(=O)OC)c2)=C1C (centres unmarked) [Example 96, (3-methoxycarbonylphenyl)methyl 4-(4-chlorophenyl)-1-(2-methoxyethyl)-6-methyl-2-oxo-3,4-dihydropyridine-5-carboxylate] | 600 | 83 | 1100 | 63
10 | COCCN1C(=O)CC(c2ccc(Cl)cc2)C(C(=O)OCc2ccccc2C)=C1C (centres unmarked) [Example 98, o-tolylmethyl 4-(4-chlorophenyl)-1-(2-methoxyethyl)-6-methyl-2-oxo-3,4-dihydropyridine-5-carboxylate] | 500 | – | 300 | –
11 | COCCN1C(=O)CC(c2ccc(Cl)cc2)C(C(=O)OCc2ccncc2)=C1C (centres unmarked) [Example 107, 4-pyridylmethyl 4-(4-chlorophenyl)-1-(2-methoxyethyl)-6-methyl-2-oxo-3,4-dihydropyridine-5-carboxylate] | 600 | 83 | 1200 | 71

Molecules with a lower EC50 (mTGR5), results first:

Row | EC50 (mTGR5) [nM] | mTGR5 % trans (mTGR5) [%] | EC50 (hTGR5) [nM] | hTGR5 % trans (hTGR5) [%] | Compound
12 | 400 | 88 | 1200 | 69 | COc1ccc(COC(=O)C2=C(C)N(C)C(=O)CC2c2ccc(Cl)cc2)cc1OC (centres unmarked) [Example 83, (3,4-dimethoxyphenyl)methyl 4-(4-chlorophenyl)-1,6-dimethyl-2-oxo-3,4-dihydropyridine-5-carboxylate]
13 | 400 | 82 | 400 | 71 | COCCN1C(=O)CC(c2ccc(Cl)cc2)C(C(=O)OCc2ccc(F)cc2)=C1C (centres unmarked) [Example 86, (4-fluorophenyl)methyl 4-(4-chlorophenyl)-1-(2-methoxyethyl)-6-methyl-2-oxo-3,4-dihydropyridine-5-carboxylate]
14 | 400 | 91 | 200 | 75 | COCCN1C(=O)CC(c2ccc(Cl)cc2)C(C(=O)OCc2cccc(Cl)c2)=C1C (centres unmarked) [Example 88, (3-chlorophenyl)methyl 4-(4-chlorophenyl)-1-(2-methoxyethyl)-6-methyl-2-oxo-3,4-dihydropyridine-5-carboxylate]
15 | 400 | 65 | 600 | 61 | COCCN1C(=O)CC(c2ccc(Cl)cc2)C(C(=O)OCc2cccc(C#N)c2)=C1C (centres unmarked) [Example 94, (3-cyanophenyl)methyl 4-(4-chlorophenyl)-1-(2-methoxyethyl)-6-methyl-2-oxo-3,4-dihydropyridine-5-carboxylate]
16 | 400 | 76 | 400 | 76 | COCCN1C(=O)CC(c2ccc(Cl)cc2)C(C(=O)OCc2ccc(C(=O)OC)cc2)=C1C (centres unmarked) [Example 97, (4-methoxycarbonylphenyl)methyl 4-(4-chlorophenyl)-1-(2-methoxyethyl)-6-methyl-2-oxo-3,4-dihydropyridine-5-carboxylate]
17 | 400 | 89 | 600 | 72 | COCCN1C(=O)CC(c2ccc(Cl)cc2)C(C(=O)OCc2ccc(C)cc2)=C1C (centres unmarked) [Example 100, p-tolylmethyl 4-(4-chlorophenyl)-1-(2-methoxyethyl)-6-methyl-2-oxo-3,4-dihydropyridine-5-carboxylate]
18 | 400 | 95 | 500 | 85 | COCCN1C(=O)CC(c2ccc(Cl)cc2)C(C(=O)OCc2cccc(OC)c2)=C1C (centres unmarked) [Example 103, (3-methoxyphenyl)methyl 4-(4-chlorophenyl)-1-(2-methoxyethyl)-6-methyl-2-oxo-3,4-dihydropyridine-5-carboxylate]
19 | 300 | 84 | 400 | 65 | COCCN1C(=O)CC(c2ccc(Cl)cc2)C(C(=O)OCc2ccc(Cl)cc2)=C1C (centres unmarked) [Example 89, (4-chlorophenyl)methyl 4-(4-chlorophenyl)-1-(2-methoxyethyl)-6-methyl-2-oxo-3,4-dihydropyridine-5-carboxylate]
20 | 300 | 76 | 200 | 78 | COCCN1C(=O)CC(c2ccc(Cl)cc2)C(C(=O)OCc2ccc(C#N)cc2)=C1C (centres unmarked) [Example 95, (4-cyanophenyl)methyl 4-(4-chlorophenyl)-1-(2-methoxyethyl)-6-methyl-2-oxo-3,4-dihydropyridine-5-carboxylate]
21 | 200 | 84 | 200 | 75 | COCCN1C(=O)CC(c2ccc(Cl)cc2)C(C(=O)OCc2c(C)cc(C)cc2C)=C1C (centres unmarked) [Example 101, (2,4,6-trimethylphenyl)methyl 4-(4-chlorophenyl)-1-(2-methoxyethyl)-6-methyl-2-oxo-3,4-dihydropyridine-5-carboxylate]
22 | 200 | 85 | 200 | 71 | COCCN1C(=O)CC(c2ccc(Cl)cc2)C(C(=O)OCc2ccc(OC)cc2)=C1C (centres unmarked) [Example 104, (4-methoxyphenyl)methyl 4-(4-chlorophenyl)-1-(2-methoxyethyl)-6-methyl-2-oxo-3,4-dihydropyridine-5-carboxylate]
23 | 200 | – | 400 | – | COCCN1C(=O)CC(c2ccc(Cl)cc2)C(C(=O)OCc2ccc3ccccc3c2)=C1C (centres unmarked) [Example 106, 2-naphthylmethyl 4-(4-chlorophenyl)-1-(2-methoxyethyl)-6-methyl-2-oxo-3,4-dihydropyridine-5-carboxylate]
